The values below are quoted from earlier work in patent US20260216065A1, “PHARMACEUTICAL COMPOSITIONS FOR NASAL DELIVERY” (Therakind Limited, priority 2023, published 2026).

The conditions of this data set: room temperature (25° C.).

`Cc1nccn1CC1CCc2c(c3ccccc3n2C)C1=O` (racemic) [ondansetron, (RS)-9-Methyl-3-[(2-methyl-1H-imidazol-1-yl)methyl]-2,3-dihydro-1H-carbazol-4(9H)-one]: the “time for which nasal spray solutions are stable” value was 48 h.
